For data set [1], the system named is BxPC-3 cells. In words: MTT cytotoxicity assay, BxPC-3. Format: cell-based, human. The following applies: for IC50: Homo sapiens, BXPC-3, 72 h, MTT, 72 h after treatment, mean ± SEM; for Selectivity index (IC50 normal cell line/IC50 cancer cell lines), BxPC-3: MRC-5 / BxPC-3, in brackets. As to the method: (§1) SW620 cells were cultured in Dulbecco’s Modified Eagle’s medium (DMEM, Sigma-Aldrich Chemie GmbH, Steinheim, Germany) and supplemented in the same manner as the previously mentioned cell lines. Cells were grown in cell culture flasks T25 (Sarstedt AG & Co., Nümbrecht, Germany) at appropriate cell densities in the culture medium prior to exposure to treatments. Stock solutions of each compound, prepared in DMSO, were diluted in the culture medium to obtain the appropriate final concentrations.
(§2) The viability of the control and cells treated with the tested compounds was determined by MTT assay. Cells were seeded in 96-well plates at a density of 2000 cells/well, allowed to attach overnight, and then treated with rising concentrations of testing compounds. The ability of viable cells to reduce 3-(4,5-dimethylthiazol-2-yl)-2,5-diphenyltetrazolium bromide into blue-purple formazan crystals, was measured 72 h after the treatments. Namely, l mg/mL of MTT reagent (Sigma-Aldrich Chemie GmbH, Steinheim, Germany) was added to each well and incubated for an additional 4 h. Finally, upon removal of the medium containing MTT, 200 µL of DMSO was added to each well.

Data set [2] relates to SW620 cells. Put plainly: Wound-healing assay. Format: cell-based, human. To be noted: 25 μM. As to the method:
The migratory potential of SW620 cells (human colon carcinoma cell line) was evaluated by a wound-healing assay. Cells were seeded in density of 300,000 cells per well in 24-well tissue culture microplates and grown for 24 h in DMEM medium supplemented with 10% FBS, penicillin/streptomycin and L-glutamine at 37 °C in a humidified atmosphere containing 5% CO2. Upon reaching confluence, a uniform wound was scratched into a monolayer of each well with a sterile plastic 200 μL micropipette tip. After wounding, the medium was replaced and cells were further treated with 25 μM of compounds 1, 2, 3, and 5 for 24 h and 48 h. Wound closure was monitored by imaging cells at 4× magnification using the ImageXpress® Pico Automated Cell Imaging System (Molecular Devices®, San Jose, CA, USA) immediately (T0), and at 24 h (T24) and 48 h (T48) after wounding. The captured images were analyzed by ImageJ software v. 1.52p (U.S. National Institutes of Health, Bethesda, MD, USA) to measure the degree of closure of the wounded area. Independent experiments were performed three times.

For data set [3], the system named is HT-29 cells. In words: MTT cytotoxicity assay, HT-29. Format: cell-based, human. To be noted: for IC50: Homo sapiens, HT-29, MTT, 72 h after treatment, mean ± SEM; for Selectivity index (IC50 normal cell line/IC50 cancer cell lines), HT-29: MRC-5 / HT-29, in brackets. As to the method: as §1, §2
Data set [4] can be described thus: in vivo. To be noted: in vivo. As to the method:
(§3) Wild-type (AB) zebrafish embryos, kindly provided by Dr. Ana Cvejić (Wellcome Trust Sanger Institute, Cambridge, UK), were raised to adult stage in a temperature- and light-controlled zebrafish facility at 28 °C and a standard 14:10 h light–dark photoperiod. Fish were fed with commercial dry food (SDS200 and SDS300 granular food; Special Diet Services, Essex; UK and TetraMinTM flakes; Tetra Melle, Germany) twice a day, and with Artemia nauplii daily.
(§4) Embryos produced by pairwise mating were washed to remove debris, distributed at 10 per well into 24-well plates containing 1 mL of E3 medium (5 mM NaCl, 0.17 mM KCl, 0.33 mM CaCl2 and 0.33 mM MgSO4 in distilled water) and maintained at 28 °C. […] Dead embryos were recorded and discarded every 24 h. […] Experiments were performed in triplicate using 30 embryos for each concentration. At 120 hpf, embryos were anesthetized by the addition of 0.1% (w/v) tricaine solution (Sigma-Aldrich, St. Louis, MO, USA), photographed, and killed by freezing at −20 °C for ≥24 h.

Data set [5] relates to zebrafish (Danio rerio) embryos. In words: in vivo. To be noted: embryos exposed for five days, up to 50 µM; cardiotoxicity, hepatotoxicity, malformations. As to the method:
as §3, §4

The subject of data set [6] is MRC-5 cells. In words: MTT cytotoxicity assay, MRC-5 normal fibroblasts. Format: cell-based, human. The following applies: for IC50: Homo sapiens, MRC5, 72 h, MTT, 72 h after treatment, mean ± SEM, healthy cell line.
In data set [7] the test system is SW620 cells. In words: Cytotoxicity in SW620 cells after 24 h treatment (Table S2). Format: cell-based. To be noted: Homo sapiens, SW-620, read-out: IC50 (µM) following 24h treatment in SW620 cells.
The subject of data set [8] is BxPC-3 cells. In words: SRB assay, compound plus γ-radiation, BxPC-3. To be noted: IC50 concentration 24 h before 2 Gy γ-radiation, SRB 72 h after irradiation. Format: cell-based, human. As to the method: (§5) In the experiments involving irradiation, cells were irradiated at room temperature, in the vertical position with the cell monolayer facing ^60Co γ-rays (CIRUS-Cis Biointernational). The irradiation of samples was performed in Vinča Institute of Nuclear Sciences, Belgrade, Serbia. In all experiments, a clinically relevant radiation dose of 2 Gy with the dose rate of ~1 Gy/min was applied.
(§6) For the evaluation of cell viability after treatments with radiation as well as after combined treatments, a sulforhodamine B (SRB) protein binding assay was used. This assay is based on the staining of cellular proteins. Maintaining conditions were identical to that of MTT assay. The cells were pretreated with IC50 concentrations of tested compounds for 24 h before irradiations. Following the 72 h post-irradiation incubation time under standard conditions (5% CO2, 37 °C) cells were fixed by protein precipitation with 10% trichloroacetic acid (TCA) at 4 °C for 1 h. Plates were rinsed with distillated water and stained with 0.4% SRB (Sigma-Aldrich Chemie GmbH, Steinheim, Germany) in 1% acetic acid, for 15 min at room temperature. Excess stain was removed by washing the wells in 1% acetic acid. […] The absorbance of each well was measured using a microplate reader (Wallac VICTOR2 1420 Multilabel counter, PerkinElmer, Turku, Finland) at a test wavelength of 550 nm.

The test system of data set [9] is HCT 116 cells. In words: SRB assay, compound plus γ-radiation, HCT 116. Format: cell-based, human. The following applies: IC50 concentration 24 h before 2 Gy γ-radiation, SRB 72 h after irradiation. As to the method: as §6, with “In the experiments involving irradiation, cells were irradiated at room temperature, in the vertical position with the cell monolayer facing ^60Co γ-rays (CIRUS-Cis Biointernational). The irradiation of samples was performed in Vinča Institute of Nuclear Sciences, Belgrade, Serbia. In all experiments, a clinically relevant radiation dose of 2 Gy with the dose rate of ~1 Gy/min was applied. For” for “For”

For data set [10], the system named is HCT 116 cells. In words: MTT cytotoxicity assay, HCT 116. Format: cell-based, human. The following applies: for IC50: Homo sapiens, HCT-116, MTT, 72 h after treatment, mean ± SEM; for Selectivity index (IC50 normal cell line/IC50 cancer cell lines), HCT 116: MRC-5 / HCT 116, in brackets. As to the method: as §1, §2
The subject of data set [11] is COX-2. Further details: method as in PMID 37111306. The following applies: cited from earlier work.
Data set [12] relates to HT-29 cells. Put plainly: SRB assay, compound plus γ-radiation, HT-29. Format: cell-based, human. The following applies: IC50 concentration 24 h before 2 Gy γ-radiation, SRB 72 h after irradiation. As to the method: as §5
For the evaluation of cell viability after treatments with radiation as well as after combined treatments, a sulforhodamine B (SRB) protein binding assay was used. This assay is based on the staining of cellular proteins. Maintaining conditions were identical to that of MTT assay. The cells were pretreated with IC50 concentrations of tested compounds for 24 h before irradiations. Following the 72 h post-irradiation incubation time under standard conditions (5% CO2, 37 °C) cells were fixed by protein precipitation with 10% trichloroacetic acid (TCA) at 4 °C for 1 h. Plates were rinsed with distillated water and stained with 0.4% SRB (Sigma-Aldrich Chemie GmbH, Steinheim, Germany) in 1% acetic acid, for 15 min at room temperature. Excess stain was removed by washing the wells in 1% acetic acid. After being rinsed, microwell plates were air dried until no staining moisture was visible. Bound dye was dissolved in 10 mM unbuffered Tris base (pH 10.5) for 5 min on a gyratory shaker. The absorbance of each well was measured using a microplate reader (Wallac VICTOR2 1420 Multilabel counter, PerkinElmer, Turku, Finland) at a test wavelength of 550 nm.

For data set [13], the system named is 5-LOX. Further details: method as in PMID 37111306. The following applies: cited from earlier work.

SMILES strings stand for the structures. “And” between values parts separate entries of the source, which are not always exact repeats. Identical values can stand only once. “Also recorded” adds a separate entry of the source.

Regarding `O=C(NO)NCc1ccccc1Nc1c(Cl)cccc1Cl` [Compound 3], the IC50 in data set [1] was 34.3 ± 1.79 µM; in [3] it was 64.6 ± 3.41 µM; in [6], over 100 µM; in data set [7], 169 ± 5.7 µM; in data set [10], 40.8 ± 1.95 µM. Moreover, the “Selectivity index (IC50 normal cell line/IC50 cancer cell lines), BxPC-3” value (“Selectivity index … BxPC-3” for short) in [1] was over 2.91. In [2] (SW620, 24 h relative to T0, mean ± SEM, control 17.87 ± 3.48), the “Relative Wound Closure (%) 24 h” value was 3.86% and 3.86 ± 0.19%. In data set [2] (SW620, 48 h relative to T0, mean ± SEM, control 24.51 ± 1.39), the “Relative Wound Closure (%) 48 h” value is 7.68% and 7.68 ± 2.99%. Besides, the “Selectivity index (IC50 normal cell line/IC50 cancer cell lines), HT-29” value (“Selectivity index … HT-29” below) in [3] was over 1.55. In addition, in data set [4], the LC50 is over 50 µM. In data set [5], the “toxic response / adverse side effects in embryos” value is on record as “did not elicit a toxic response; also recorded: no adverse side effects”. The “cell proliferation, combined treatment versus radiation alone, BxPC-3” value in data set [8] is reported as “significant change in cell inactivation”. Moreover, the “cell proliferation, combined treatment versus radiation alone, HCT 116” value in [9] is “lower in comparison to cells that were only irradiated”. Also, the “Selectivity index (IC50 normal cell line/IC50 cancer cell lines), HCT 116” value (“Selectivity index … HCT 116” for short) in data set [10] is reported as over 2.45.
Turning to `C=CCNC(=O)c1cc(C(C)(C)C)c(O)c(C(C)(C)C)c1` [Compound 6], the IC50 was 8.63 ± 0.77 µM in data set [1]; 6.89 µM in data set [11]; 24.8 ± 5.4 µM in data set [3]; over 100 µM in data set [6]; 23 ± 3.27 µM in data set [10]. Besides, the “Selectivity index … BxPC-3” value in data set [1] is over 11.59. Moreover, the “Selectivity index … HT-29” value in data set [3] was over 4.04. The “cell proliferation, combined treatment versus radiation alone, BxPC-3” value in data set [8] is reported as “statistically significant change with respect to radiation”. Further, the “cell proliferation, combined treatment versus radiation alone, HT-29” value in [12] is “statistically significant change with respect to radiation”. For the same compound, the “Selectivity index … HCT 116” value in data set [10] was over 4.35.
As to `C#CCNC(=O)c1cc(C(C)(C)C)c(O)c(C(C)(C)C)c1` [Compound 7], the IC50 was 12.6 µM in data set [13]; 29.2 ± 1.56 µM in [1]; over 100 µM in [3]; over 100 µM in data set [6]; 30.2 ± 5.07 µM in data set [10]. The “Selectivity index … BxPC-3” value in data set [1] is on record as over 3.42. In addition, the “cell proliferation, combined treatment versus radiation alone, HT-29” value in data set [12] is “significantly inactivated HT-29 cells”. Further, in data set [10], the “Selectivity index … HCT 116” value was over 3.31.
Take `CC(c1cc2ccccc2s1)N(O)C(N)=O` (centres unmarked) [Zileuton, reference compound]: in [1], the IC50 was 74.9 ± 4.1 µM and the “Selectivity index … BxPC-3” value is on record as 1.28. In data set [3], it took 78.5 ± 2.28 µM to reach half-maximal inhibition (IC50) and the “Selectivity index … HT-29” value was determined as 1.22. Also, in data set [4], the 50% lethal concentration (LC50) was 4.41 µM. The IC50 in [6] came out at 95.74 ± 0.94 µM. For the same compound, the “Selectivity index, MRC-5” value in data set [6] (MRC-5 / MRC-5 (reference value), in brackets) worked out at 1. For the same compound, in data set [10], 44.9 ± 3.48 µM corresponded to half-maximal inhibition (IC50) and the “Selectivity index … HCT 116” value was found to be 2.13.

The values above are taken from paper PMC11207729, “Unveiling Anticancer Potential of COX-2 and 5-LOX Inhibitors: Cytotoxicity, Radiosensitization Potential and Antimigratory Activity against Colorectal and Pancreatic Carcinoma” (Pharmaceutics, 2024).
